Results: patent publication US9315546B2, “Growth hormone secretatogue receptor antagonists and uses thereof” (The Administrators of the Tulane Educational Fund, priority 2010, dated 2016)
Several values for one entry are separate records, joined by “and”; a condition that tells them apart may be missing. Equal entries are not always repeated. One block for each compound: values may come before it. Where no end group is shown, it is not given here. [ ]: non-standard residue; d: D form.

Molecular target: Ghrelin/GHRP/GHS Receptor (Rattus norvegicus, UniProt O08725)
Assay: GH release from cell culture of pituitary cells
Assay type: cell-based
Set-up: After dispersion, the cells were collected by centrifugation, wash with DMEM and placed into culture well; endogenous in cells; host or cells: dispersed primary rat pituitary cells, 4 days in culture
Settings: for Unstimulated Basal GH release: Table 8
Experimental: In vitro GH Release-Female rats of the CD-1 strain were housed in a constant temperature room at 24° C. with 14 h light and 10 h darkness. The rats were fed Purina Rat chow and water at libitum. All studies were started between 0800-1000 hours. Pituitaries of mature female Sprague Dawley rats were rapidly removed after decapitation, neurointermediate lobe discarded and then placed in a pH 7.4 buffer. The pituitaries were cut into ˜3-mm pieces and then transferred to a flask containing HEPS buffer with trypsin and incubated at 37° C. Cells were triturated several times during this period. After dispersion, the cells were collected by centrifugation, wash with DMEM and placed into culture well. Cell cultures were maintained for 4 days at 37° with 8% CO2 added to the incubator atmosphere. After 4 days in culture, cells were washed with lactated Ringer's solution adjusted to pH 7.2-7.4 and then vehicle, peptide alone or peptide plus stimulator was added to media. Incubation time was 60-120 minutes after which media was removed from each well for GH determination. The GH RIA reagents were distributed by the NIH. Control data was collected from cell cultures treated with only the corresponding vehicle in the absence of peptide or stimulator. Control stimulated data was collected from cell cultures treated with stimulator alone in the absence of any peptide.

[1] = Table 10, compound 10 μg/ml + stimulator 1 ng/ml
[2] = Table 10, compound 30 μg/ml + stimulator 1 ng/ml
[3] = Table 10, compound alone 10 μg/ml
[4] = Table 10, compound alone 30 μg/ml
[5] = Table 10, compound 1 μg/ml + stimulator 1 ng/ml
[6] = Table 10, compound 3 μg/ml + stimulator 1 ng/ml
[7] = Table 10, compound alone 1 μg/ml
[8] = Table 10, compound alone 3 μg/ml
[9] = Table 11, compound 10 μg/ml + stimulator 1 ng/ml
[10] = Table 11, compound 30 μg/ml + stimulator 1 ng/ml
[11] = Table 11, compound alone 10 μg/ml
[12] = Table 11, compound alone 30 μg/ml

Ghrelin/GHRP/GHS Receptor, sequence (O08725 whole entry): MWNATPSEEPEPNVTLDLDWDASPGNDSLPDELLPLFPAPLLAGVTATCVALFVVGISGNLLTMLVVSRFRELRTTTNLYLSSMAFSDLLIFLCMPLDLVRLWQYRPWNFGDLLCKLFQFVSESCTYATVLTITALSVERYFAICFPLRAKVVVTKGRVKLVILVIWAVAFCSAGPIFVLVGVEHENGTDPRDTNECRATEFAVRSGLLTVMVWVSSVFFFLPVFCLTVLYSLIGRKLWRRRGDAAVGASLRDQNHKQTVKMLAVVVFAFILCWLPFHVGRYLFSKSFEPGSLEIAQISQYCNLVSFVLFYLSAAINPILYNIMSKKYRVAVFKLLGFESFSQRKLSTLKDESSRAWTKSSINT

Stimulated GH release (P + S) [1]: 571 ± 32 ng/mL | Stimulated GH release (P + S) [2]: 399 ± 24 ng/mL | Unstimulated GH release [3]: 388 ± 41 ng/mL | Unstimulated GH release [4]: 273 ± 39 ng/mL
Compound: Ser(Bzl)Lys(Ac)DTrp-p-phenylpiperidinamide

Stimulated GH release (P + S) [1]: 878 ± 30 ng/mL | Stimulated GH release (P + S) [2]: 510 ± 15 ng/mL | Unstimulated GH release [3]: 777 ± 34 ng/mL | Unstimulated GH release [4]: 499 ± 18 ng/mL
Compound: CC(C)(N)C(=O)N[C@H](COCc1ccccc1)C(=O)N1CCN(c2ccccc2)CC1 [αAibDSer(BZL)-N′-phenyl-N-piperazinamide]

Unstimulated Basal GH release (peptide 10 μg/ml): 267 ± 27 ng/mL | Unstimulated Basal GH release (peptide 30 μg/ml): 276 ± 65 ng/mL | Unstimulated Basal GH release (peptide 100 μg/ml): 360 ± 84 ng/mL
Compound: [dF]AF[dF]K-NH2 [7-DPhe-Ala-Phe-DPhe-Lys-NH2]

Unstimulated Basal GH release (peptide 3 μg/ml): 1146 ± 34 ng/mL | Unstimulated Basal GH release (peptide 10 μg/ml): 1086 ± 32 ng/mL | Unstimulated Basal GH release (peptide 30 μg/ml): 871 ± 89 ng/mL
Compound: [dF]W[dF]FM-NH2 [13-DPhe-Trp-DPhe-Phe-Met-NH2]

Stimulated GH release (P + S) [5]: 654 ± 18 ng/mL | Stimulated GH release (P + S) [6]: 442 ± 4 ng/mL | Stimulated GH release (P + S) [1]: 537 ± 28 ng/mL and 648 ± 16 ng/mL | Stimulated GH release (P + S) [2]: 309 ± 46 ng/mL | Unstimulated GH release [7]: 338 ± 3 ng/mL | Unstimulated GH release [8]: 204 ± 10 ng/mL | Unstimulated GH release [3]: 262 ± 4 ng/mL and 136 ± 11 ng/mL | Unstimulated GH release [4]: 118 ± 8 ng/mL
Compound: COc1ccccc1N1CCN(C(=O)c2cc3ccccc3cc2C(=O)N2CCN(c3ccccc3OC)CC2)CC1 [2,3-di[N-(2-methoxylphenyl)piperazyl-naphthalenecarboxylamide]

Unstimulated Basal GH release (peptide 3 μg/ml): 1081 ± 50 ng/mL | Unstimulated Basal GH release (peptide 10 μg/ml): 997 ± 30 ng/mL | Unstimulated Basal GH release (peptide 30 μg/ml): 425 ± 25 ng/mL
Compound: DPal-Phe-DTrp-Phe-Met-NH2 [12-DPal-Phe-DTrp-Phe-Met-NH2]

Stimulated GH release (P + S) [5]: 1085 ± 1 ng/mL | Stimulated GH release (P + S) [6]: 917 ± 4 ng/mL | Stimulated GH release (P + S) [1]: 344 ± 6 ng/mL | Stimulated GH release (P + S) [2]: 486 ± 29 ng/mL | Unstimulated GH release [7]: 815 ± 26 ng/mL | Unstimulated GH release [8]: 390 ± 35 ng/mL | Unstimulated GH release [3]: 520 ± 61 ng/mL | Unstimulated GH release [4]: 577 ± 24 ng/mL
Compound: N[C@H](Cc1c[nH]c2ccccc12)C(=O)N1CCC(c2ccccc2)CC1 [1-DTrp-4-phenylpiperdinamide, DTrp-4-phenylpiperdinamide]

Unstimulated Basal GH release (peptide 1 μg/ml): 980 ± 44 ng/mL | Unstimulated Basal GH release (peptide 3 μg/ml): 826 ± 32 ng/mL | Unstimulated Basal GH release (peptide 10 μg/ml): 602 ± 53 ng/mL | Unstimulated Basal GH release (peptide 30 μg/ml): 492 ± 11 ng/mL
Compound: αAib-DTrp-DcyclohexylAla-NH2 [3-αAib-DTrp-DcyclohexylAla-NH2]

Unstimulated Basal GH release (peptide 3 μg/ml): 1105 ± 18 ng/mL | Unstimulated Basal GH release (peptide 10 μg/ml): 891 ± 4 ng/mL | Unstimulated Basal GH release (peptide 30 μg/ml): 567 ± 24 ng/mL
Compound: DPal-Trp-DPhe-Phe-Met-NH2 [14-DPal-Trp-DPhe-Phe-Met-NH2]

Stimulated GH release (P + S) [6]: 432 ± 25 ng/mL | Stimulated GH release (P + S) [1]: 353 ± 10 ng/mL | Unstimulated GH release [8]: 393 ± 54 ng/mL | Unstimulated GH release [3]: 369 ± 30 ng/mL
Compound: Benzamide-DSerDLysTrp-p-phenylpiperidinamide

Stimulated GH release (P + S) [1]: 719 ± 26 ng/mL | Stimulated GH release (P + S) [2]: 435 ± 0 ng/mL | Unstimulated GH release [3]: 585 ± 10 ng/mL | Unstimulated GH release [4]: 368 ± 2 ng/mL
Compound: N[C@H](COCc1ccccc1)C(=O)N1CCN(c2ccccc2)CC1 [6-D Ser(BZL)-N′-phenyl-N-piperazinamide, D Ser(BZL)-N′-phenyl-N-piperazinamide]

Stimulated GH release (P + S) [9]: 1149 ± 33 ng/mL | Stimulated GH release (P + S) [10]: 886 ± 29 ng/mL | Unstimulated GH release [11]: 754 ± 32 ng/mL | Unstimulated GH release [12]: 498 ± 26 ng/mL
Compound: COC(=O)c1cc2ccccc2cc1C(=O)Nc1ccc(C)cc1 [2-[methylester]-3-[p-methylphenylamidenaphthalenecarboxylamide]

Unstimulated Basal GH release (peptide 1 μg/ml): 1451 ± 19 ng/mL | Unstimulated Basal GH release (peptide 3 μg/ml): 1175 ± 77 ng/mL | Unstimulated Basal GH release (peptide 10 μg/ml): 1129 ± 6 ng/mL | Unstimulated Basal GH release (peptide 30 μg/ml): 744 ± 44 ng/mL
Compound: [dK]Y[dW][dW]F-NH2 [8-DLys-Tyr-DTrp-DTrp-Phe-NH2]

Unstimulated Basal GH release (peptide 3 μg/ml): 1124 ± 37 ng/mL | Unstimulated Basal GH release (peptide 10 μg/ml): 749 ± 10 ng/mL | Unstimulated Basal GH release (peptide 30 μg/ml): 615 ± 41 ng/mL
Compound: H[dW][dW]K-NH2 [1-His-DTrp-DTrp-Lys-NH2]

Unstimulated Basal GH release (peptide 3 μg/ml): 105 ± 8 ng/mL | Unstimulated Basal GH release (peptide 10 μg/ml): 950 ± 91 ng/mL | Unstimulated Basal GH release (peptide 30 μg/ml): 782 ± 56 ng/mL | Unstimulated Basal GH release (peptide 100 μg/ml): 756 ± 1 ng/mL
Compound: Ac-[dK]Y[dW][dW]F-NH2 [9-Ac-DLys-Tyr-DTrp-DTrp-Phe-NH2]

Stimulated GH release (P + S) [9]: 526 ± 27 ng/mL | Stimulated GH release (P + S) [10]: 428 ± 22 ng/mL | Unstimulated GH release [11]: 557 ± 19 ng/mL | Unstimulated GH release [12]: 378 ± 18 ng/mL
Compound: γAbuDTrp-p-[m-methoxyphenyl] piperidinamide

Unstimulated Basal GH release (peptide 3 μg/ml): 1264 ± 2 ng/mL | Unstimulated Basal GH release (peptide 10 μg/ml): 980 ± 72 ng/mL | Unstimulated Basal GH release (peptide 30 μg/ml): 699 ± 7 ng/mL
Compound: Ac-DβNal-DTrp-NH2 [2-Ac-DβNal-DTrp-NH2]

Unstimulated Basal GH release (peptide 1 μg/ml): 286 ± 75 ng/mL | Unstimulated Basal GH release (peptide 3 μg/ml): 177 ± 44 ng/mL | Unstimulated Basal GH release (peptide 10 μg/ml): 271 ± 38 ng/mL | Unstimulated Basal GH release (peptide 30 μg/ml): 376 ± 28 ng/mL
Compound: DAla-DcyclohexylAla-Ala-Ala-Phe-DPhe-Nle-NH2

Unstimulated Basal GH release (peptide 3 μg/ml): 1013 ± 207 ng/mL | Unstimulated Basal GH release (peptide 10 μg/ml): 976 ± 13 ng/mL | Unstimulated Basal GH release (peptide 30 μg/ml): 928 ± 16 ng/mL
Compound: Ac-DβNal-PlcLys-ILys-DPhe-NH2 [11-Ac-DβNal-PlcLys-ILys-DPhe-NH2]

Stimulated GH release (P + S) [9]: 441 ± 21 ng/mL | Stimulated GH release (P + S) [10]: 384 ± 16 ng/mL | Unstimulated GH release [11]: 365 ± 2 ng/mL | Unstimulated GH release [12]: 375 ± 30 ng/mL
Compound: COc1ccccc1C1CCN(C(=O)[C@@H](Cc2c[nH]c3ccccc23)NC(=O)C(C)(C)N)CC1 [αAibDTrp-p-(α-methoxylphenyl) piperidinamide]

Stimulated GH release (P + S) [9]: 644 ± 33 ng/mL | Stimulated GH release (P + S) [10]: 529 ± 20 ng/mL | Unstimulated GH release [11]: 794 ± 34 ng/mL | Unstimulated GH release [12]: 504 ± 20 ng/mL
Compound: 1,3-diaminobutyricamide-DβNal-4-phenylpiperidinamide

Stimulated GH release (P + S) [1]: 1281 ± 58 ng/mL | Stimulated GH release (P + S) [2]: 699 ± 53 ng/mL | Unstimulated GH release [3]: 929 ± 28 ng/mL | Unstimulated GH release [4]: 616 ± 23 ng/mL
Compound: C=C(C)CON=C(c1ccccc1)c1ccccc1 [5-O-(2-methylallyl) benzophonone oxime, O-(2-methylallyl) benzophonone oxime]

Unstimulated Basal GH release (peptide 1 μg/ml): 1086 ± 52 ng/mL | Unstimulated Basal GH release (peptide 3 μg/ml): 1103 ± 18 ng/mL | Unstimulated Basal GH release (peptide 10 μg/ml): 994 ± 22 ng/mL | Unstimulated Basal GH release (peptide 30 μg/ml): 704 ± 115 ng/mL
Compound: αAib-DTrp-DAla-cyclohexylAla-NH2 [4-αAib-DTrp-DAla-cyclohexylAla-NH2]

Stimulated GH release (P + S) [9]: 670 ± 32 ng/mL | Stimulated GH release (P + S) [10]: 458 ± 15 ng/mL | Unstimulated GH release [11]: 698 ± 18 ng/mL | Unstimulated GH release [12]: 552 ± 20 ng/mL
Compound: CCOC(=O)c1cc2ccccc2cc1C(=O)Nc1cccc(OC)c1 [2-[ethylester-3-m-methoxylphenylamide] naphthalene carboxylamide]
